{
  "source": "patent US20170246267A1",
  "about": "“CHOLINERGIC ANTAGONISM AS AN ADJUNCT TO CANCER THERAPY” (The Trustees of Columbia University in the City of New York, priority 2014, published 2017)",
  "key": {"INS-GAS mice [1]": {"test_system": "INS-GAS mice", "details": "mouse, in vivo"}, "[2]": {"test_system": "TMK1 gastric cancer cell line", "experiment": "YAP immunoblotting in TMK1 gastric cancer cell line", "assay_type": "cell-based, human", "design": "changes of YAP phosphorylation after carbachol stimulation: dose or concentration left out as unconfirmed", "description": "(§1) Similarly, carbachol treatment in Apc-deleted gastric organoids reduced the level of phosphorylated YAP (FIG. 51G). […] Next a human M3R gene-expressing construct was transfected into the M3R-negative AGS cell line. Overexpression of M3R decreased the level of phosphorylated YAP in a Gq-dependent manner, and activated the transcriptional activity of YAP in a luciferase assay (Dupont et al., 2011) (FIGS. 45B, 45C, and 52A).\n(§2) Protein lysates were prepared from cells, separated by sodium dodecyl sulfate-polyacrylamide gel electrophoresis (SDS-PAGE), transferred to polyvinylidene difluoride membranes (Millipore). The membrane was probed with primary antibodies (phospho-YAP (Cell Signaling, 1:1000), YAP (Cell Signaling, 1:1000, and β-actin (Sigma, 1:5000) antibodies), and then incubated with the secondary antibody. Immunocomplexes were detected using the enhanced chemiluminescence system (Amersham Biosciences).\n(§3) The human cancer cell lines were cultured in RPMI, DMEM, or Ham's F-12 medium supplemented with 10% fetal bovine serum, as described previously (Hayakawa et al., 2011)."}, "[3]": {"experiment": "Bethanechol and response to 15 Gy abdominal irradiation (AIR)", "assay_type": "in vivo, mouse"}, "DSS-colitis": {"test_system": "DSS-colitis", "experiment": "Bethanechol in drinking water in DSS-colitis", "assay_type": "in vivo, mouse"}, "[4]": {"test_system": "Dclk1-CreERT; R26-DTA mice", "details": "mouse, in vivo"}, "human cancer cells": {"test_system": "human cancer cells", "experiment": "NGF expression in human cancer cells treated with carbachol", "assay_type": "cell-based", "details": "TMK-1 cells, 10 mM carbachol for 24 hours", "excerpt": "as §1\n(§4) Total RNA was extracted from whole stomach samples from each animal using TRIzol reagent (Invitrogen) or the RNAqueous-micro kit (Ambion) and subjected to first-strand complementary DNA synthesis using the Superscript III cDNA Amplification System (Invitrogen) following the manufacturer's instructions. qRT-PCR was performed using a three-step method, an ABI 7300 system and SYBR green (Roche). The qRT-PCR primer sequences are available upon request. The results were expressed as the copy number of each gene relative to that of Gapdh or GAPDH.\nas §3"}, "[5]": {"test_system": "Apc-deleted gastric organoids", "experiment": "YAP immunoblotting in Apc-deleted gastric organoids treated with carbachol", "assay_type": "cell-based, mouse", "details": "1 mM carbachol for 7 days", "excerpt": "as §1\n(§5) The harvested mouse stomachs were opened longitudinally and washed with cold PBS. The tissue was chopped into approximately 5 mm pieces, washed with cold PBS, and incubated in 8 mM EDTA in PBS for 60 minutes on ice. The tissue fragments were suspended vigorously in cold 10% FBS using a 10-mL pipette, yielding supernatants enriched in crypts. […]\nas §2"}, "gastric organoids [6]": {"test_system": "gastric organoids", "experiment": "Ngf expression in cultured gastric organoids treated with carbachol", "assay_type": "cell-based, mouse", "excerpt": "In mouse gastric tumors, there was also a specific upregulation of Ngf (almost 20 times higher expression than the normal stomach), and such upregulation was not observed in any other neurotrophins (FIG. 40B). Similar upregulation of Ngf was found in mouse colorectal tumors induced by azoxymethane (AOM) and dextran sodium sulfate (DSS) (FIG. 47B). […] Immunostaining and in situ hybridization confirmed that NGF was expressed within the neoplastic epithelium rather than the stromal compartment (FIGS. 40D and 47C), a finding confirmed by cell sorting and subsequent qPCR (FIGS. 40E and 40F). MNU tumor-derived organoids that are cultured in isolation, separated from their native microenvironment, lost Ngf expression within 7 days. […] Therefore, ACh production, possibly from tuft cells initially but later from innervated nerves with axonogenesis, is at least partly responsible for the neoplastic upregulation of NGF.\nas §5, with “crypts. Gland fractions were centrifuged at 900 rpm for 6 minutes at 4° C. and diluted with advanced DMEM/F12 (Invitrogen) containing B27, N2, 1 μM n-Acetylcysteine, 10 mM HEPES, penicillin/streptomycin, and Glutamax (all from Invitrogen).” for “crypts.”\nas §4, with “The qRT-PCR primer sequences are available upon request.” left out"}, "[7]": {"test_system": "small cell lung cancer xenografts", "details": "reference 50; cited from earlier work"}, "INS-GAS mice [8]": {"test_system": "INS-GAS mice", "details": "mouse, in vivo", "remark": "listed apart in the source"}, "gastric organoids [9]": {"test_system": "gastric organoids", "experiment": "Stem cell marker / Wnt target gene expression in gastric organoids (qRT-PCR)", "assay_type": "cell-based, mouse"}, "gastric organoids [10]": {"test_system": "gastric organoids", "experiment": "In vitro gastric organoid culture with or without neuron co-culture: organoid growth", "assay_type": "cell-based, mouse"}, "[11]": {"details": "after knockout of tuft cells, bethanechol in the drinking water"}},
  "note": "“Also recorded” adds a separate entry of the source. Starred links: 1 amine or outer side, 2 acyl side, 3 side chain; linkers in the order of their positions; H or OH if unused. Positions of bridges follow the written chain, without caps; N, C: chain ends. Non-standard residues stand in square brackets, D forms with d. Residues, ends and D or L forms follow the SMILES beside them. X1 = CC(=O)NC(C(=O)OC(C(C)C)C(N[*:1])C(=O)[*:2])C(O)C(C)C; PhLac = O=C(O)[CH](O)Cc1ccccc1; NMeT = CN[CH](C(=O)O)[CH](C)O; NMeA = CN[CH](C)C(=O)O; NMeDha = C=C(NC)C(=O)O",
  "data": [
    {"compound": "O=c1[nH]cc(F)c(=O)[nH]1", "note": "[5-FU, 5-Fluorouracil]", "values": [
      {"measurement": "tumor size", "setting": "INS-GAS mice [1]", "value": "no effect"}
    ]},
    {"compound": "C=C1C(=O)NC(C)C(=O)N(C)C(C)C(=O)NC(C(OC(=O)C(NC(C)=O)C(O)C(C)C)C(C)C)C(=O)N(C)C(C(C)OC)C(=O)OC(C)C(NC(C)=O)C(=O)OC(Cc2ccccc2)C(=O)N1C", "note": "(centres unmarked) [YM254890] (Ac-T[PhLac][NMeDha]A[NMeA][X1][NMeT](Me); ester 1-C; configuration not given here)", "values": [
      {"measurement": "changes of YAP phosphorylation after carbachol stimulation", "setting": "[2]; pretreated with YM254890", "value": "blocked"}
    ]},
    {"compound": "CC(C[N+](C)(C)C)OC(N)=O", "note": "(centres unmarked) [bethanechol]", "values": [
      {"measurement": "survival", "setting": "[3]; 15 Gy abdominal irradiation, bethanechol as a single agent immediately before or after the radiation", "value": "no significant overall impact"},
      {"measurement": "appearance of the colon after radiation", "setting": "[3]; both pre- and post-radiation treated mice", "value": "almost normal appearing"},
      {"measurement": "improvement of histopathologic score for the colon compared to the controls", "setting": "[3]; day +4 after radiation, both pre- and post-radiation treated mice", "value": "> 65", "unit": "%"},
      {"measurement": "mucosal / intestinal regeneration", "setting": "DSS-colitis; after ablation of Dclk1+ (tuft) cells, bethanechol in the drinking water", "value": "restored; also recorded: improve"},
      {"measurement": "proliferation", "setting": "DSS-colitis; [11]", "value": "improved"},
      {"measurement": "ulcer length", "setting": "DSS-colitis; [11]", "value": "reduction"},
      {"measurement": "DSS colitis", "setting": "DSS-colitis; bethanechol-treated", "value": "Significant improvement"},
      {"measurement": "proliferation (Ki67)", "setting": "DSS-colitis; mouse, in vivo", "value": "increased"},
      {"measurement": "loss of proliferation in the stomach by Dclk1+ cell ablation", "setting": "[4]", "value": "rescue this effect at least in part; also recorded: significantly rescued"}
    ]},
    {"compound": "C[N+](C)(C)CCOC(N)=O", "note": "[carbachol]", "values": [
      {"measurement": "NGF expression", "setting": "human cancer cells", "value": "significantly upregulated"},
      {"measurement": "level of phosphorylated YAP", "setting": "[5]", "value": "reduced"},
      {"measurement": "level of phosphorylated YAP", "setting": "[2]; 1 mM carbachol", "value": "reduced"},
      {"measurement": "levels of total YAP", "setting": "[2]; 1 mM carbachol", "value": "no significant changes"},
      {"measurement": "Ngf expression", "setting": "gastric organoids [6]; MNU tumor-derived organoids cultured in isolation, day 7", "value": "upregulated; also recorded: partly reestablished"},
      {"measurement": "Ngf expression", "setting": "gastric organoids [6]; gastric organoids from WT mice, carbachol for 7 days", "value": "upregulated"},
      {"measurement": "NGF expression", "setting": "gastric organoids [6]; organoids from M3 Receptor Knockout (M3RKO) mice", "value": "no change"}
    ]},
    {"compound": "NC(=O)C(c1ccccc1)(c1ccccc1)[C@@H]1CCN(CCc2ccc3c(c2)CCO3)C1", "note": "[darifenacin]", "values": [
      {"measurement": "growth of small cell lung cancer xenografts", "setting": "[7]", "value": "inhibit"},
      {"measurement": "cellular proliferation of the tumors", "setting": "INS-GAS mice [8]", "value": "reduced"}
    ]},
    {"compound": "O=C1[O][Pt]2([NH][C@@H]3CCCC[C@H]3[NH]2)[O]C1=O", "note": "[oxaliplatin]", "values": [
      {"measurement": "tumor size", "setting": "INS-GAS mice [1]", "value": "no effect"}
    ]},
    {"compound": "CC[C@@H]1C(=O)OC[C@@H]1Cc1cncn1C", "note": "[pilocarpine]", "values": [
      {"measurement": "expression of Lgr5, Cd44, and Sox9", "setting": "gastric organoids [9]; gastric organoids of M3KO mice", "value": "no effects"},
      {"measurement": "expression of gastric stem cell markers and Wnt target genes Lgr5, Cd44, and Sox9", "setting": "gastric organoids [9]; organoids from WT mice, 10 or 100 μM, day 7, dose-dependent", "value": "up-regulation"},
      {"measurement": "organoid growth", "setting": "gastric organoids [10]; relative number of organoids at day 10, 100 μM pilocarpine", "value": "stimulated"}
    ]},
    {"compound": "CN1[C@@H]2C[C@@H](OC(=O)[C@H](CO)c3ccccc3)C[C@H]1[C@@H]1O[C@@H]12", "note": "[scopolamine]", "values": [
      {"measurement": "stimulatory effect of neuron co-culture on gastric organoid growth", "setting": "gastric organoids [10]", "value": "inhibited"}
    ]},
    {"compound": "NGF: nerve growth factor, used to treat TMK-1 cells", "values": [
      {"measurement": "YAP activation", "setting": "[2]; TMK-1 cells treated with NGF", "value": "did not cause"}
    ]}
  ]
}
